Measured values published in the supplement of paper PMC13380429.
± gives the standard deviation of the averaged measurements.

Columns and labels:
Conditions in all cases: 72 h
Caco-2 [1] = assay: cell viability relative to DMSO; higher = less toxic
Calu-3 [2] = assay: as above
HepG2 [3] = assay: as above
Vero E6 [4] = assay: as above
Caco-2 [5] = assay: relative viability EC50 (midpoint between 100% and the lowest measured viability); higher = less toxic
Calu-3 [6] = assay: as above
HepG2 [7] = assay: as above
Vero E6 [8] = assay: as above
Caco-2 [9] = assay: drug sensitivity score (DSS) for viability; higher = more toxic; extreme values may be limits of the assay
Calu-3 [10] = assay: as above
HepG2 [11] = assay: as above
Vero E6 [12] = assay: as above
U2OS [13] = assay: cell viability relative to DMSO; higher = less toxic
U2OS [14] = assay: drug sensitivity score (DSS) for viability; higher = more toxic; extreme values may be limits of the assay
U2OS [15] = assay: relative viability EC50 (midpoint between 100% and the lowest measured viability); higher = less toxic

Structure (SMILES) | cell viability (Caco-2 [1]; 1 nM) [%] | cell viability (Caco-2 [1]; 10 nM) [%] | cell viability (Caco-2 [1]; 100 nM) [%] | cell viability (Caco-2 [1]; 1000 nM) [%] | cell viability (Caco-2 [1]; 10000 nM) [%] | cell viability (Calu-3 [2]; 1 nM) [%] | cell viability (Calu-3 [2]; 10 nM) [%] | cell viability (Calu-3 [2]; 100 nM) [%] | cell viability (Calu-3 [2]; 1000 nM) [%] | cell viability (Calu-3 [2]; 10000 nM) [%] | cell viability (HepG2 [3]; 1 nM) [%] | cell viability (HepG2 [3]; 10 nM) [%] | cell viability (HepG2 [3]; 100 nM) [%] | cell viability (HepG2 [3]; 1000 nM) [%] | cell viability (HepG2 [3]; 10000 nM) [%] | cell viability (Vero E6 [4]; 1 nM) [%] | cell viability (Vero E6 [4]; 10 nM) [%] | cell viability (Vero E6 [4]; 100 nM) [%] | cell viability (Vero E6 [4]; 1000 nM) [%] | cell viability (Vero E6 [4]; 10000 nM) [%] | relative viability EC50 (Caco-2 [5]) [µM] | relative viability EC50 (Calu-3 [6]) [µM] | relative viability EC50 (HepG2 [7]) [µM] | relative viability EC50 (Vero E6 [8]) [µM] | drug sensitivity score (Caco-2 [9]) | drug sensitivity score (Calu-3 [10]) | drug sensitivity score (HepG2 [11]) | drug sensitivity score (Vero E6 [12]) | cell viability (U2OS [13]; 1 nM) [%] | cell viability (U2OS [13]; 10 nM) [%] | cell viability (U2OS [13]; 100 nM) [%] | cell viability (U2OS [13]; 1000 nM) [%] | cell viability (U2OS [13]; 10000 nM) [%] | drug sensitivity score (U2OS [14]) | relative viability EC50 (U2OS [15]) [µM]
OC(CCCN1CCN(c2ncc(F)cn2)CC1)c1ccc(F)cc1 (stereo not drawn) | 98.4 | 99.1 | 101 | 94.2 | 95.7 | 107 | 99.7 | 102 | 104 | 94.7 | 95.8 | 100 | 98.3 | 96 | 97.5 | 101 | 98.1 | 94.9 | 99 | 95.4 | > 10 | > 10 | > 10 | > 10 | 0 | 0 | 0 | 0 |  |  |  |  |  |  | 
CCOC(=O)c1ccc(OC(=O)CCCCCNC(=N)N)cc1 [gabexate] | 94.2 | 95.6 | 99.2 | 95.2 | 89.4 | 88.1 | 95.9 | 84.8 | 86.9 | 87.1 | 97.1 | 115 | 96.9 | 95.6 | 103 | 101 | 104 | 98 | 98.4 | 100 | > 10 | > 10 | > 10 | > 10 | 0 | 1.4 | 0 | 0 |  |  |  |  |  |  | 
COc1cccc(Nc2ncnn3ccc(CN4CC[C@@H](N)[C@H](O)C4)c23)c1 | 89.2 | 91 | 81.2 | 76.1 | 48.6 | 103 | 94.4 | 46.5 | 23.7 | 9.1 | 105 | 102 | 102 | 99 | 87.9 | 100 | 89.4 | 65.7 | 51.4 | 14.8 | 0.335 | 0.0837 | > 10 | 0.292 | 7.5 | 21.9 | 0.1 | 14.4 | 96.2 | 96.5 | 93.2 | 92.6 | 55.7 | 3.5 | 
COc1cc(OCc2cccc(-c3ccccc3)c2C)cc(OC)c1CN1CCCC[C@H]1C(=O)O [PD1-PDL-inhibitor-1] | 104 | 94.5 | 94.4 | 96.3 | 102 | 98.2 | 99.1 | 98.1 | 102 | 102 |  |  |  |  |  | 99.5 | 106 | 99.3 | 105 | 103 | > 10 | > 10 |  | > 10 | 0 | 0 |  | 0 | 99.3 | 98.7 | 101 | 99 | 95.8 | 0 | > 10
CC(C)(C)NCC(O)c1ccccc1Cl (stereo not drawn) [tulobuterol] | 93.7 | 89.8 | 88.1 | 79.8 | 95.6 | 94.6 | 91.1 | 99.4 | 111 | 88.4 |  |  |  |  |  | 96.9 | 98.2 | 99.7 | 96.2 | 87 | > 10 | > 10 |  | > 10 | 0 | 0 |  | 0.3 | 99.7 | 95.5 | 102 | 101 | 98.6 | 0 | > 10
Cc1ccnc2c1NC(=O)c1cccnc1N2C1CC1 [nevirapine] | 87.3 | 86.8 | 101 | 97 | 100 | 104 | 90.6 | 109 | 96.8 | 87.8 |  |  |  |  |  | 94.3 | 107 | 96.5 | 104 | 108 | > 10 | > 10 |  | > 10 | 0 | 0.2 |  | 0 | 97.2 | 101 | 101 | 101 | 98.9 | 0 | > 10
C[C@@H](CN(C)C)CN1c2ccccc2Sc2ccccc21 (racemic) [alimemazine] | 112 | 100 | 97.8 | 108 | 80.4 | 97.5 | 94.8 | 101 | 105 | 83.4 | 105 | 101 | 104 | 104 | 70.9 | 100 | 98.1 | 99.4 | 88.9 | 77.2 | > 10 | > 10 |  | > 10 | 0.3 | 0.2 | 1 | 1.9 | 103 | 95 | 103 | 97 | 94.3 | 0 | > 10
C[C@H](N[C@@H](CCc1ccccc1)C(=O)O)C(=O)N1CCC[C@H]1C(=O)O [enalaprilat] | 92.8 | 104 | 90.1 | 97.5 | 94.7 | 101 | 101 | 105 | 89 | 97.2 |  |  |  |  |  | 97.5 | 94.5 | 99.1 | 101 | 107 | > 10 | > 10 |  | > 10 | 0 | 0.2 |  | 0 | 96.5 | 97.9 | 94.9 | 96.7 | 104 | 0 | > 10
CCC1(C2=NCCN2)Cc2ccccc2O1 (stereo not drawn) [efaroxan] | 102 | 96.7 | 97.1 | 90.4 | 98.7 | 109 | 93.4 | 109 | 101 | 110 |  |  |  |  |  | 102 | 101 | 101 | 98.4 | 106 | > 10 | > 10 |  | > 10 | 0 | 0 |  | 0 | 107 | 107 | 101 | 95.8 | 101 | 0 | > 10
C[C@]12N[C@H](Cc3ccccc31)c1ccccc12 [dizocilpine-(-)] | 98.7 ± 0.42 | 94.5 ± 1.2 | 97.7 ± 1.8 | 102 ± 6.2 | 99.5 ± 5 | 97.8 ± 11 | 96.6 ± 3 | 101 ± 7.7 | 96.8 ± 6.1 | 98.5 ± 11 | 99.4 ± 0.28 | 97.7 ± 4.1 | 102 ± 9.9 | 95 ± 4.2 | 73.8 ± 28 | 95.8 | 97.2 | 101 | 93 | 97 | > 10 | > 10 |  | > 10 | 0 | 0 | 1.85 ± 2.6 | 0 | 98.1 ± 5.1 | 104 ± 3.2 | 97.4 ± 1.7 | 100.7 ± 0.92 | 95.4 ± 1.4 | 0 | > 10
C#C[C@]1(O)CC[C@H]2[C@@H]3CCC4=CC(=O)CC[C@@H]4[C@H]3CC[C@@]21C [Norethindrone (Norethisterone)] | 94 | 103 | 97 | 101 | 116 | 103 | 105 | 93.9 | 110 | 99.9 | 103 | 89.5 | 94.1 | 100 | 114 | 98.4 | 97.4 | 94.6 | 93.6 | 109 | > 10 | > 10 | > 10 | > 10 | 0 | 0 | 0 | 0 |  |  |  |  |  |  | 
CCOc1ccn(-c2ccc(F)cc2)c(=O)c1C(=O)Nc1ccc(Oc2ccnc(N)c2Cl)c(F)c1 | 101 | 90.4 | 90.3 | 103 | 75.1 | 93.5 | 103 | 101 | 96.1 | 94 | 110 | 116 | 108 | 96.9 | 68.5 | 103 | 99.1 | 101 | 98.8 | 81.5 | > 10 | > 10 |  | > 10 | 0.8 | 0 | 1.9 | 0.6 | 102 | 98.4 | 103 | 99.2 | 98 | 0 | > 10
CC1=C(/C=C/C(=C/C=C/C(C)=C/C(=O)O)c2ccc(C)cc2)C(C)(C)CCC1 | 90.9 | 94.2 | 95.4 | 98.4 | 97.1 | 94.6 | 106 | 112 | 102 | 99.3 | 106 | 103 | 98.2 | 94.2 | 98.4 | 99.1 | 95.2 | 101 | 97.2 | 108 | > 10 | > 10 | > 10 | > 10 | 0 | 0 | 0 | 0 |  |  |  |  |  |  | 
